Assays:
HT-29 cells = experiment: HT-29 transplanted tumors in nude mice, compound a in combination with doxorubicin; assay type: in vivo; details: Doxorubicin 2 mg/kg/week i.p. or compound a 3 mg/kg/day gavage, 4 weeks
Method: Compound a was administered by gavage once a day for 4 weeks continuously; Doxorubicin was injected intraperitoneally once a week for 4 weeks. Body weight and tumor volume of animals were measured and calculated according to Example 9.

[1] = system: colon cancer cells (SW480); details: SW480 tumors in nude mice; for effect on tumor / on sensitivity of tumor to doxorubicin: doxorubicin 2.5 mg/kg i.p. every 2 days for 5 weeks, agents daily; for death of animals during treatment: doxorubicin 2.5 mg/kg i.p., 6 mice per group
Method: The experiment was carried out using compound a in this example. Under sterile conditions, a suspension of colon cancer cells (SW480) in logarithmic growth phase (cell concentration was adjusted to 1×10^7/mL with physiological saline) was inoculated subcutaneously to 5 to 6 weeks old balb/c female nude mice on the right rear back, and each nude mice was inoculated at an amount of 0.3 ml, i.e. the number of cells contained was 3×10^6 per each mouse. 10 days later, subcutaneous transplanted tumor of 100-250 mm^3 appeared. The nude mice with tumor were randomly divided into several groups, each containing 6 mice: (1) control group; (2) doxorubicin group; (3) doxorubicin+amifostine; (4) doxorubicin+Celecoxib+intermediate II; (5) doxorubicin+intermediate I+intermediate II; (6) doxorubicin+low-dose compound a (6 mg/kg/day); (7) doxorubicin+high-dose compound a (15 mg/kg/day). Firstly, the following compounds were administered to each group of nude mice with tumor according to the following doses: intermediate I and intermediate II (3 mg/kg/day respectively), amifostine (400 mg/kg/day), Celecoxib (6 mg/kg/day). Except that amifostine was subcutaneously injected (30 minutes before irradiation), the other protective agents were administered by gavage. The above drugs were administered every day for 5 weeks continuously. 12 hours after the administration, doxorubicin (2.5 mg/kg) was injected intraperitoneally, and it was administered once every 2 days for 5 weeks. During the dosing period, the body weight of the nude mice was measured every two days with a precision electronic balance. The growth of the tumor and whether or not red and swelling and rupture occur were observed every day after inoculation. After tumor formation, the surface morphology and activity of the transplanted tumor were examined, and the longest diameter (a) and the shortest diameter (b) of the tumor nodules were measured every 3 days with a vernier caliper. […] 21 days after administration of doxorubicin, the tail vein blood of mice was collected to perform leukocyte count and blood biochemical index analysis. The tumor tissue and normal peripheral tissues were taken on the last day of treatment, and the content of the intermediate I therein was measured by HPLC (FIG. 9a). At the same time, paraffin sections were made, the occurrence of apoptosis was detected by terminal labeling (FIG. 9b), and the relative survival percentages of normal tissue and tumor tissue were calculated (the results are summarized in FIG. 9b).

peripheral leukocytes = experiment: Protection against blood cell (leukocyte) damage induced by paclitaxel; assay type: in vivo; details: mice, paclitaxel; amifostine 400 mg/kg/day i.p.
Method: In this experiment, 10-week-old male mice (C57BL/6J) weighing about 20 grams were used as subjects, and 6 mice were taken as a group. The mice were divided into 5 groups: 1. Paclitaxel; 2. Paclitaxel+amifostine; 3. Paclitaxel+intermediate I+intermediate II; 4. paclitaxel+compound a; and 5. paclitaxel+compound b. Firstly, each group of mice was administered with a protective agent, and the specific amounts were as follows: compounds a and b: each 6 mg/kg/day (8.1 μM), amifostine: 400 mg/kg/day (1.5 mM), intermediate I+Intermediate II: each 3 mg/kg/day (8.1 μM). Except that amifostine was intraperitoneally injected (30 minutes before administering Paclitaxel, amifostine was administered), the other protective agents were administered by gavage (once a day, 25 times continuously). 12 hours after the compound a and the corresponding protective agents were administered, Paclitaxel was intraperitoneally injected (10 mg/kg/day, once every 3 days, 9 times continuously), and 7, 14, 21, 28 days later, blood of mice was drawn respectively. The number of leukocytes was analyzed.

mice (C57BL/6J) = experiment: Survival rate of mice irradiated by γ-rays; assay type: in vivo; details: 30th day after 8.75 Gy γ-rays, 16 mice per group; for number of survived mice: intermediates each 3 mg/kg/day gavage; for survival rate: compounds 6 mg/kg/day gavage, amifostine 400 mg/kg/day i.p.
Method: In this experiment, 10-week-old male mice (C57BL/6J) weighing about 20 g were used as subjects, and 16 mice were taken as a group. The mice were divided into the following groups: 1. no γ-ray+no drug; 2. γ-ray+no drug; 3. γ-ray+amifostine; 4. γ-ray+intermediate I+intermediate II; 5. γ-ray+compound a; 6. γ-ray+compound b; and 7. γ-ray+compound d. Firstly, each group of mice was administered with a protective agent, and the specific amounts were as follows: compound a, b and d: 6 mg/kg/day (8.1 μM), amifostine: 400 mg/kg/day (1.5 mM), intermediate I+Intermediate II: each 3 mg/kg/day (8.1 μM). Except that amifostine was intraperitoneally injected (30 minutes before irradiation, amifostine was administered), the other protective agents were administered by gavage. 12 hours after administration, systemic irradiation was performed using cobalt 60γ-rays at a dose of 8.75Gy and a dose rate of 0.35 Gy/min for 25 minutes, with the radiation source 80 cm away from the mice. The mice were irradiated once, and continuously administered with drugs once daily for 10 days after irradiation. The number of survival mice was recorded. The percentage obtained by dividing the number of survival mice by the total number of mice in the experimental group (16 mice) is survival rate of mice, and the results are summarized in FIG. 7. […] It is noteworthy that in the experimental group using intermediate I+intermediate II, only one mouse is survived.

COX-1 in gastric mucosa = target: T1, COX-1 in gastric mucosa (Rattus norvegicus, UniProt Q63921); experiment: COX-1 activity assay, gastric mucosa (thromboxane B2 EIA) after oral dosing of A23187-treated rats; assay type: in vivo; details: for reduction of inhibition against COX-1 in gastric mucosal tissue compared with intermediate I: gavage 1, 3, 9 mg/kg/day, intermediate I 0.5 mg/kg, 6 h after dosing; for effect of inhibiting COX-1 in gastric mucosa: gavage, A23187-activated
T1 construct: from tissue; host or cells: rat gastric mucosa (in vivo dosing, tissue homogenate supernatant)
T1 sequence (Q63921 27-602): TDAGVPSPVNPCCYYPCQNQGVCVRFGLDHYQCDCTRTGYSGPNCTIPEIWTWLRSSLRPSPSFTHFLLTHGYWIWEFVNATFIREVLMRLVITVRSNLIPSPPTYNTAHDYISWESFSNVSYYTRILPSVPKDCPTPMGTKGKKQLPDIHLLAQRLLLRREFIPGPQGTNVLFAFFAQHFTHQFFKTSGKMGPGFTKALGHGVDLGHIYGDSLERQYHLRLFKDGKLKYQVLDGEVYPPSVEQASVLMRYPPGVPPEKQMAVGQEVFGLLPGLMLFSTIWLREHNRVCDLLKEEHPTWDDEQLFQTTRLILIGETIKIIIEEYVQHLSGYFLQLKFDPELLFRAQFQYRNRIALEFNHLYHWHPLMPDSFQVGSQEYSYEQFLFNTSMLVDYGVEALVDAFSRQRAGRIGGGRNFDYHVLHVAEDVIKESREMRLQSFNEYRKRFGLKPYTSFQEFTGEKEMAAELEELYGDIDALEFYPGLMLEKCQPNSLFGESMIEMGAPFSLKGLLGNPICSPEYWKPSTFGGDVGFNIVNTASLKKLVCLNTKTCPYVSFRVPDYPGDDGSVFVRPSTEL
Method: (1) COX-1 activity assay: 2 hours after intraperitoneal injection of calcium ionophore A23187 (50 mg/kg) to rats, each of the compounds a, b, c, d, e and f was orally administered (gavage) to three rats at a dose of 1, 3 and 9 mg/kg/day, respectively; the intermediate I was orally administered as a control drug to three rats at a dose of 0.5 mg/kg; and additional three rats were only administered with COX-1 activator, the calcium ionophore A23187, and were not administered with the compounds of the present invention. 6 hours after the compound of the present invention was administered, the animals were sacrificed, gastric mucosal tissue and myocardial tissue were collected, homogenized, and subjected to high-speed centrifugation (12,000 rpm), and the supernatant was collected for use. The amount of thromboxane B2 was measured using an enzyme-linked immunosorbent assay (EIA) kit (operated in accordance with the instructions provided by the manufacturer) and converted to COX1 activity.
(§1) The percentage inhibition rate against COX-1 (FIG. 1a—gastric mucosa, FIG. 1b—myocardium) and COX-2 (FIG. 1c) and the IC50 values (Table 1a—gastric mucosa; Table 1b—myocardium) of each tested pharmaceutical compound were calculated from the above data.

COX-2 = target: T2, COX-2 (Rattus norvegicus, UniProt P35355); experiment: COX-2 activity assay (PGE2 in gastric mucosa, EIA) in LPS-treated rats; assay type: in vivo; details: gavage, LPS 2.5 mg/kg-activated
T2 construct: from tissue; host or cells: rat gastric mucosa (LPS-treated rats, in vivo dosing)
T2 sequence (P35355 18-604): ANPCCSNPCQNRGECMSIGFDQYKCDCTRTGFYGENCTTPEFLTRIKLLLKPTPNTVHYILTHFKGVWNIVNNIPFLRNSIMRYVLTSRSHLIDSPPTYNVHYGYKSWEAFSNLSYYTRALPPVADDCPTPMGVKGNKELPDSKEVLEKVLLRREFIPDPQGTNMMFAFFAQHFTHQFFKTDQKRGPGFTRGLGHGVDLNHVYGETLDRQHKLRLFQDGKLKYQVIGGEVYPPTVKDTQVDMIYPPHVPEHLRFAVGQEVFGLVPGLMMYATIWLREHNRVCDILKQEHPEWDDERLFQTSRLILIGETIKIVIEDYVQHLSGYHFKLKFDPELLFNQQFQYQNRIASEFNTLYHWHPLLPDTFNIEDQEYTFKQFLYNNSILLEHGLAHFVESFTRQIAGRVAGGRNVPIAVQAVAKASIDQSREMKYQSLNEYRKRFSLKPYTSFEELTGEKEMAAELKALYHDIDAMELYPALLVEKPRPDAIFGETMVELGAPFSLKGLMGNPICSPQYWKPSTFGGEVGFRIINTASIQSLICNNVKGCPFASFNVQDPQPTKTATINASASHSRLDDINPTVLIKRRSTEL
Method: (2) COX-2 activity assay: The assay was similar to that of COX-1, except that LPS was injected intraperitoneally to rats at a dose of 2.5 mg/kg to activate COX-2 in this experiment. After administration, the content of PGE2 in gastric mucosa was measured using an enzyme-linked immunosorbent assay (EIA) kit (operated according to the instructions provided by the manufacturer) and converted to COX2 activity.
as §1

gastric mucosa = experiment: Ulcer induction in rats after gavage (lesions of the gastric mucosa); assay type: in vivo
SW480 cells = experiment: Measurement of cellular uptake of compounds (HPLC of intermediate I); assay type: in vitro ADME; details: 10 μM
A549 cells = experiment: A549 transplanted tumors in nude mice, compound used alone; assay type: in vivo; details: A549; cisplatin 5 mg/kg/week i.p.; compound a 5 and 25 mg/kg/day; intermediates 12.5 mg/kg/day each
Method: Except cisplatin (intraperitoneal injection, once a week), all compounds were administered by gavage, once a day for 5 weeks continuously.

For `COc1cccc2c1C(=O)c1c(O)c3c(c(O)c1C2=O)C[C@@](O)(C(=O)CO)C[C@@H]3O[C@H]1C[C@H](N)[C@H](O)[C@H](C)O1` [Doxorubicin], the “inhibition of the tumor, administered alone” value (HT-29 cells) was “only slightly inhibited”, the “effect on tumor / on sensitivity of tumor to doxorubicin” value (from here on “effect on tumor / on sensitivity”) [1] was “mild inhibitory effect” and the “death of animals during treatment” value [1] was “three”.

In the case of `NCCCNCCSP(=O)(O)O` [amifostine, reference compound], the “protective effect on leukocytes at the early stage of simulated chemotherapy” value (peripheral leukocytes) is reported as “slight better than that of the compounds a and b”, the “effect on tumor / on sensitivity” value [1] is reported as “significantly interferes with the inhibitory effect of doxorubicin on the tumor” and the “protection of normal tissue and cells from doxorubicin” value ([1]; with doxorubicin) is reported as “effectively protects the normal tissue”. The “number of survived mice” value (mice (C57BL/6J)) was 10 mice and the survival rate (mice (C57BL/6J)) was 62.5%.

With `COC1=C(OC)C(=O)C(CCCCCCCCCCOC(=O)CC2=C(C)C(=Cc3ccc([S+](C)[O-])cc3)c3cc(F)ccc32)=C(C)C1=O` (stereo not shown) [compound c] the “reduction of inhibition against COX-1 in gastric mucosal tissue compared with intermediate I” value (“reduction of inhibition” for short) (COX-1 in gastric mucosa) was roughly 700 fold, the “effect of inhibiting COX-1 in gastric mucosa” value (COX-1 in gastric mucosa) was “almost lose the effect of inhibiting COX-1 in gastric mucosa” and the “inhibition against COX-2” value (COX-2) was “weaker than those of compounds a and b”.

For `COc1ccc2c(c1)c(CC(=O)O)c(C)n2C(=O)c1ccc(Cl)cc1` [intermediate I, reference compound], the prevalence of ulcer (gastric mucosa; gavage three times, 10 μM) was 0/6, the prevalence of ulcer (gastric mucosa; gavage three times, 30 μM) was 2/6 and the prevalence of ulcer (gastric mucosa; gavage three times, 90 μM) was 6/6. For the same compound, the Ulcer index (gastric mucosa; gavage three times, Dose 90 μM/kg, 12 hours after last gavage) was 72.8 ± 6.82, the “ulcer at high concentration” value (gastric mucosa; gavage, high concentration (90 μM)) was “very serious ulcer” and the “effect on tumor / on sensitivity” value [1] was “can also enhance the sensitivity of the tumor to Doxorubicin”. The “death of animals during treatment” value [1] was “die of gastrointestinal bleeding” and the “uptake by cells” value (SW480 cells) was “difficult to be efficiently taken up by the cells”.

For `COC1=C(OC)C(=O)C(COC(=O)Cc2c(C)n(C(=O)c3ccc(Cl)cc3)c3cc(OC)ccc23)=C(C)C1=O` [compound f], the “reduction of inhibition” value (COX-1 in gastric mucosa) was roughly 700 fold, the “effect of inhibiting COX-1 in gastric mucosa” value (COX-1 in gastric mucosa) was “almost lose the effect of inhibiting COX-1 in gastric mucosa” and the “inhibition against COX-2” value (COX-2) was “weaker than those of compounds a and b”.

With `N.N.[Cl][Pt][Cl]` [cisplatin, reference compound] the “inhibitory effect on the tumor” value (A549 cells) was “only mild inhibitory effect”.

`COc1c(O)c(C)c(CCCCCCCCCCOC(=O)CC2=C(C)C(=Cc3ccc([S+](C)[O-])cc3)c3cc(F)ccc32)c(O)c1OC` (stereo not shown) [compound d] was tested, and the “reduction of inhibition” value (COX-1 in gastric mucosa) was roughly 700 fold, the “effect of inhibiting COX-1 in gastric mucosa” value (COX-1 in gastric mucosa) was “almost lose the effect of inhibiting COX-1 in gastric mucosa” and the “inhibition against COX-2” value (COX-2) was “weaker than those of compounds a and b”. The “number of survived mice” value (mice (C57BL/6J)) was 11 mice and the survival rate (mice (C57BL/6J)) was 68.75%.
